Laboratory results as given in patent US20250099405A1, “COMPOSITIONS, METHODS, AND DEVELOPMENT OF ARID4B INHIBITORS” (University of Kentucky Research Foundation, priority 2022, published 2025).

Tests used:
ARID4B = biological target: T1, ARID4B (Homo sapiens, UniProt Q4LE39); experiment: Cellular thermal shift assay (CETSA), endogenous ARID4B in MCF7 cells; type: cell-based; conditions: 10 μM, 2 h, 49-52° C. without compound
T1 construct: endogenous in cells; host or cells: MCF7
T1 sequence (Q4LE39 1-1312): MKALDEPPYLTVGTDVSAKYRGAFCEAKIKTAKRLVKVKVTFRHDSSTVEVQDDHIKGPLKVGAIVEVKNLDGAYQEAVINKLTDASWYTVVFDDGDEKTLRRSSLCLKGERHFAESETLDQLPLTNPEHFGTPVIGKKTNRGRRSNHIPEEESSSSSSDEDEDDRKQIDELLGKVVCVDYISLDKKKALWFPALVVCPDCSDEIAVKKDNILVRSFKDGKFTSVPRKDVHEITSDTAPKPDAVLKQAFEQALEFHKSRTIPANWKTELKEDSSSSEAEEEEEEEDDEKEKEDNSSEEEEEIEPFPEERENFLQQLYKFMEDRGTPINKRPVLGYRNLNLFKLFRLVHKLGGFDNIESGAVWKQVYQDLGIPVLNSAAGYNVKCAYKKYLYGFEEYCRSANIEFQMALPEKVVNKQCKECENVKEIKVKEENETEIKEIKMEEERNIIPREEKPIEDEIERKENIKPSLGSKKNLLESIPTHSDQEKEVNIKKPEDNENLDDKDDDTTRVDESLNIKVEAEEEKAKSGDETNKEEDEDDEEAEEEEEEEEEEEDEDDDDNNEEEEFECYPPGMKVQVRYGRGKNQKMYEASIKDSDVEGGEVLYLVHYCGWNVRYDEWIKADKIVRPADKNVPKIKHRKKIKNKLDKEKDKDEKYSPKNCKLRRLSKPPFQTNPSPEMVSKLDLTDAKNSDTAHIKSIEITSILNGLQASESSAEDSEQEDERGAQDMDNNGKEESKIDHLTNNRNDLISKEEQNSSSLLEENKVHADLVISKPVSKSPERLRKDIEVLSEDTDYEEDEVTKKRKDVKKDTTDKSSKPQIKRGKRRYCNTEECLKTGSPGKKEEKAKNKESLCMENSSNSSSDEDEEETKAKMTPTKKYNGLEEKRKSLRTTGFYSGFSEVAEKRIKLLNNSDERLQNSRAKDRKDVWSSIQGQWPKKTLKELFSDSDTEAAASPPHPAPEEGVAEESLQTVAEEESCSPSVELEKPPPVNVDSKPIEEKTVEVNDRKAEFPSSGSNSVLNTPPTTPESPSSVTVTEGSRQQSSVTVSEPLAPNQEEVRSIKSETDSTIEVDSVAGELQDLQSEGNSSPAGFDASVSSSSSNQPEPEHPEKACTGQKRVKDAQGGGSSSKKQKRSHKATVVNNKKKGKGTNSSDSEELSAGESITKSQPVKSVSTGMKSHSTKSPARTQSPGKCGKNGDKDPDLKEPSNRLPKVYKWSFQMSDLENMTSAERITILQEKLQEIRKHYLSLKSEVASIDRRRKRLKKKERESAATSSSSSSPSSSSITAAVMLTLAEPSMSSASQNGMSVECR
Method: (B-C) show cells expressing HA-ARID4B (C) or HA-ARID4BIC (D) treated or not with ARD150 (10 μM) for 2 h were used for CESTA. […] (D-E) show cells expressing HA-ARID4B (D) or Flag-ARID4A (E) treated or not with RWR-18 (10 μM) for 2 h were used for CESTA. […] Data are means±SEM from three experiments. *P<0.05, **P<0.01, ns, not significant.
Using CETSA (cellular thermal shift assay) to examine whether ARD150 or RWR-18 binds to ARID4B, MCF7 cells treated or not with ARD150 or RWR-18 for 2 h were collected, followed by heating at 46, 49, 52, 55, and 58° C. to denature and precipitate ARID4B protein, cell lysis, removal of cell debris and aggregates by centrifugation, and finally detection of remaining thermostable ARID4B protein by western blot. The ARID4B aggregation temperatures without ARD150 were determined to be 49-52° C., but shifted to 52-55° C. after treatment with ARD150 and even more so with RWR-18 (FIG. 15A-D). To determine whether ARD150 and RWR-18 targets the chromodomain of ARID4B, CESTA was performed using chromodomain deletion mutant (ARID4BAC). HEK-293T cells expressing HA-ARID4B or HA-ARID4BAC were treated or not with ARD150 (10 μM) for 2 h and processed for CESTA.

[1] = biological target: T2, ARID4B binding to H3K4me3 (Homo sapiens, UniProt Q4LE39); experiment: Histone peptide binding assay; conditions: His-ARID4B pre-incubated with compound
T2 construct: His; made in house; host or cells: Sf9
T2 sequence (Q4LE39 1-1312): T1 sequence (Q4LE39 1-1312)
Method: His-ARID4B was pre-incubated with RWR-18 as indicated followed by histone peptide binding assays.
Histone peptide binding assays were used to determine that ARID4B binds to which methylated lysine. Full-length His-ARID4B and deletion mutants expressed in Sf9 were purified by Ni-NTA affinity resin (FIG. 20A). To determine which methylated lysine ARID4B binds, full-length His-ARID4B was incubated with biotinylated histone H3 peptides tri-methylated at the K4, K9, K27, K36 or K79. The corresponding unmethylated H3 peptides were used as controls ([…]). […] Next, the ARID4B deletion mutants were used to determine domain(s) of ARID4B responsible for binding to H3K4me3. Deletion of Tudor and chromo domains impaired binding to H3K4me3 (FIG. 20C, compare lanes 3, 4, and 7).
Since RWR-18 targets the chromodomain of ARID4B, which is important for binding to H3K4me3 (FIG. 20), it was tested whether RWR-18 interferes with binding of H3K4me3 using histone peptide binding assays as described above.

ERα signaling = experiment: qRT-PCR of ERα target genes after E2 treatment; type: cell-based; conditions: pre-treatment 5 and 10 μM
Method: The mRNA levels of GREB1, PGR, ARID4B, and MYD88 from MCF7 (A) and MCF7 Y537S cells (B) pre-treated with RWR-18 (0, 5 and 10 μM, 1 h) followed by +E2 treatment (10 nM, 4 h) were analyzed by qRT-PCR. Data are means±SEM from three biological replicate. ***, P<0.001. ns, not significant.
Consistent with knockout of ARID4B inhibited E2-induced and constitutive expression of ERα target genes, pre-treatment with RWR-18 (5 and 10 μM) abolished the induction of PGR and GREB1 genes by E2 in MCF7 and ZR75-1 cells (FIG. 18).

binding of ARID4B to H3K4me3 [1]	SMILES	ARID4B aggregation temperatures (ARID4B)	levels of ARID4B or MYD88 mRNA (ERα signaling)	induction of PGR and GREB1 genes by E2 (ERα signaling; MCF7 and ZR75-1 cells)
	COc1ccc(C(=O)NCCCN2CCOCC2)cc1OC [ARD150]	52-55 °C		
inhibited	O=C(COc1ccc(OCc2ccccc2)cc1)NCCCN1CCOCC1 [RWR-18]		not affected	abolished
